From ChEMBL document CHEMBL1201862, “PubChem BioAssay data set” (2004)
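Exposure lasted 48 hours, with cells grown in 96-well plates and compounds tested at five concentrations. Here, GI50 denotes the concentration required for 50% inhibition of growth.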 Active and inactive are the calls of the source. Cut-off read from the data, not from the text of the source: active = GI50 up to about 1.1 µM and inactive = higher.

Experiments:
Test in all cases: growth of human tumour cells (NCI), 48 h
[1] = test system: CAKI-1
[2] = test system: HCT-15
[3] = test system: HT-29
[4] = test system: K562
[5] = test system: M14
[6] = test system: MCF7
[7] = test system: MDA-MB-231
[8] = test system: MOLT-4
[9] = test system: NCI-H226
[10] = test system: NCI-H460
[11] = test system: NCI-H522
[12] = test system: OVCAR-5
[13] = test system: SF-539
[14] = test system: SK-MEL-2
[15] = test system: SK-OV-3
[16] = test system: SNB-19
[17] = test system: SNB-75
[18] = test system: U-251
[19] = test system: UO-31
[20] = test system: SR

| Compound | GI50 [1] | GI50 [2] [µM] | GI50 [3] | GI50 [4] | GI50 [5] | GI50 [6] | GI50 [7] | GI50 [8] | GI50 [9] | GI50 [10] | GI50 [11] | GI50 [12] | GI50 [13] | GI50 [14] | GI50 [15] | GI50 [16] | GI50 [17] | GI50 [18] | GI50 [19] | GI50 [20] |
| --- | --- | --- | --- | --- | --- | --- | --- | --- | --- | --- | --- | --- | --- | --- | --- | --- | --- | --- | --- | --- |
| Cc1cn([C@@H]2O[C@H](CO[Si](C)(C)C(C)(C)C)[C@]3(O[C@H]3C(=O)NO)[C@H]2O[Si](C)(C)C(C)(C)C)c(=O)[nH]c1=O | 2.07 µM (inactive) | 1.87 | 1.53 µM (inactive) | 2.47 µM (inactive) | 1.85 µM (inactive) | 1.71 µM (inactive) | 2.09 µM (inactive) | 1.73 µM (inactive) | 1.94 µM (inactive) | 1.69 µM (inactive) | 1.52 µM (inactive) | 1.78 µM (inactive) | 1.5 µM (inactive) | 2.01 µM (inactive) | 1.87 µM (inactive) | 1.66 µM (inactive) | 1.71 µM (inactive) | 1.7 µM (inactive) | 1.74 µM (inactive) |  |
| CC1(c2ccc(F)cc2)CC(c2ccc(F)cc2)=C(C#N)C(=C(C#N)C#N)N1 (stereo not drawn) | 16 µM (inactive) | 14.8 | 15.4 µM (inactive) | 11 µM (inactive) | 18.7 µM (inactive) | 14.5 µM (inactive) | 21.2 µM (inactive) | 14.4 µM (inactive) | 21.2 µM (inactive) | 18 µM (inactive) |  | 19.8 µM (inactive) | 25.7 µM (inactive) | 16 µM (inactive) | 21.8 µM (inactive) | 17.4 µM (inactive) | 19.8 µM (inactive) | 16.6 µM (inactive) | 17.1 µM (inactive) | 14.9 µM (inactive) |
| CSc1nn(C)cc2nc(C)nc1-2 | > 100 µM (inactive) | > 100 | > 100 µM (inactive) | > 100 µM (inactive) | > 100 µM (inactive) | > 100 µM (inactive) | > 100 µM (inactive) | > 100 µM (inactive) | > 100 µM (inactive) | > 100 µM (inactive) |  | > 100 µM (inactive) | > 100 µM (inactive) | > 100 µM (inactive) |  | > 100 µM (inactive) | > 100 µM (inactive) | > 100 µM (inactive) | > 100 µM (inactive) | > 100 µM (inactive) |
| S=C1NC2=C(COc3ccccc32)C(c2ccc(Cl)cc2)N1 (stereo not drawn) |  |  | 15.5 µM (inactive) | 15.6 µM (inactive) | 18.7 µM (inactive) | 19.1 µM (inactive) | 17.4 µM (inactive) | 12.8 µM (inactive) | 17.6 µM (inactive) |  |  | 16.3 µM (inactive) | 16.6 µM (inactive) | 15.3 µM (inactive) | 19.6 µM (inactive) | 22.9 µM (inactive) | 20 µM (inactive) | > 10 µM (inactive) | 18.4 µM (inactive) |  |
| COc1cc(C(C)=O)cc(C(=O)N(C(C)C)C(C)C)c1[Si](C)(C)C | > 100 µM (inactive) | > 100 |  |  | > 100 µM (inactive) | > 100 µM (inactive) | > 100 µM (inactive) | 79.6 µM (inactive) | > 100 µM (inactive) | > 100 µM (inactive) | 34.8 µM (inactive) |  | > 100 µM (inactive) | > 100 µM (inactive) | 28.9 µM (inactive) | > 100 µM (inactive) | 9.2 µM (inactive) | > 100 µM (inactive) | > 100 µM (inactive) |  |
| Cc1[nH]c2ncn3ncnc3c2c1Cc1ccccc1 | > 100 µM (inactive) | > 100 | > 100 µM (inactive) |  | > 100 µM (inactive) | > 100 µM (inactive) | > 100 µM (inactive) | > 100 µM (inactive) | > 100 µM (inactive) | > 100 µM (inactive) | > 100 µM (inactive) | > 100 µM (inactive) | > 100 µM (inactive) | > 100 µM (inactive) | > 100 µM (inactive) | > 100 µM (inactive) | > 100 µM (inactive) | > 100 µM (inactive) | > 100 µM (inactive) |  |
| C[n+]1c2ccccc2n2c3ccccc3c(NCc3ccco3)c(C#N)c21 | 2.07 µM (inactive) | 1.05 | 2.7 µM (inactive) | 1.49 µM (inactive) | 2.3 µM (inactive) | 0.575 µM (active) | 2.21 µM (inactive) | 0.984 µM (active) | 2.23 µM (inactive) | 1.1 µM (active) | 0.678 µM (active) | 2.12 µM (inactive) | 0.959 µM (active) | 2 µM (inactive) | 3.85 µM (inactive) | 3.11 µM (inactive) | 2.02 µM (inactive) | 2 µM (inactive) | 1.22 µM (inactive) |  |
| CC(=O)OCC1OC(n2c(C)c(/N=N/c3ccc(Cl)cc3)c(C)c(C#N)c2=S)C(OC(C)=O)C(OC(C)=O)C1OC(C)=O (stereo not drawn) | 50.8 µM (inactive) | > 100 | > 100 µM (inactive) | > 100 µM (inactive) | > 100 µM (inactive) | > 100 µM (inactive) | 65.2 µM (inactive) | > 100 µM (inactive) |  | > 100 µM (inactive) |  | 31.8 µM (inactive) | 44.1 µM (inactive) | 34.2 µM (inactive) | 36.3 µM (inactive) | 28.8 µM (inactive) | 20.1 µM (inactive) | 28.1 µM (inactive) | > 100 µM (inactive) | > 100 µM (inactive) |
| Clc1ccc2c(NCCCC/N=C/c3ccccc3)ccnc2c1 |  | 17.8 | 5.18 µM (inactive) | 5.01 µM (inactive) | 14.4 µM (inactive) | 11.1 µM (inactive) | 13.6 µM (inactive) | 2.82 µM (inactive) | 4.33 µM (inactive) | 11 µM (inactive) | 11.8 µM (inactive) | 13 µM (inactive) | 11.9 µM (inactive) | 11.8 µM (inactive) | 10.1 µM (inactive) | 14.8 µM (inactive) | 11.1 µM (inactive) | 11 µM (inactive) | 14.8 µM (inactive) |  |
| CC(C)C(=O)/C=C/S/C=C/C(=O)C(C)C | 3.56 µM (inactive) | 3.2 | 4.09 µM (inactive) |  | 3.92 µM (inactive) | 23 µM (inactive) | 3.7 µM (inactive) |  | 7 µM (inactive) | 10.8 µM (inactive) | 1.19 µM (inactive) | 5.27 µM (inactive) | 16.8 µM (inactive) | 23.4 µM (inactive) | 41.8 µM (inactive) | 28.3 µM (inactive) | 45.1 µM (inactive) | 18.6 µM (inactive) | 4.93 µM (inactive) |  |
| CCCCOC(=O)C(O)Cc1ccoc1 (stereo not drawn) |  | > 100 | > 100 µM (inactive) | > 100 µM (inactive) | > 100 µM (inactive) | > 100 µM (inactive) | > 100 µM (inactive) | > 100 µM (inactive) | > 100 µM (inactive) | > 100 µM (inactive) | > 100 µM (inactive) | > 100 µM (inactive) | > 100 µM (inactive) | > 100 µM (inactive) | > 100 µM (inactive) | > 100 µM (inactive) | > 100 µM (inactive) | > 100 µM (inactive) | > 100 µM (inactive) |  |
| C[C@]12CC[C@@H]3c4ccc(OP(=O)(O)O)cc4CC[C@H]3[C@@H]1CCC2=O | > 100 µM (inactive) | > 100 | 63.1 µM (inactive) | 46.3 µM (inactive) | 61.4 µM (inactive) | > 100 µM (inactive) | 80.7 µM (inactive) | 54 µM (inactive) |  | 91.6 µM (inactive) | 33.4 µM (inactive) | > 100 µM (inactive) | 81.8 µM (inactive) | 62.5 µM (inactive) | > 100 µM (inactive) | > 100 µM (inactive) | 68.9 µM (inactive) | 93.3 µM (inactive) | 80.7 µM (inactive) |  |
